From the kinase profiling compilation of Christmann-Franck et al. (2016)

Key:
Assay in all cases: Caliper, Mobility shift assay off-chip
LYN (human) = LYN (human) (UniProt P07948)
AKT2 (human) = AKT2 (human) (UniProt P31751)
RPS6KA2 KD1 KD2 (human) = RPS6KA2 KD1 KD2 (human) (UniProt Q15349)
AURKC (human) = AURKC (human) (UniProt Q9UQB9)
CHEK2 (human) = CHEK2 (human) (UniProt O96017)
MAPK13 (human) = MAPK13 (human) (UniProt O15264)
STK3 (human) = STK3 (human) (UniProt Q13188)
CAMK2B (human) = CAMK2B (human) (UniProt Q13554)
CAMK2D (human) = CAMK2D (human) (UniProt Q13557)
Sequence of CAMK2D (human) (Q13557 whole entry, looked up): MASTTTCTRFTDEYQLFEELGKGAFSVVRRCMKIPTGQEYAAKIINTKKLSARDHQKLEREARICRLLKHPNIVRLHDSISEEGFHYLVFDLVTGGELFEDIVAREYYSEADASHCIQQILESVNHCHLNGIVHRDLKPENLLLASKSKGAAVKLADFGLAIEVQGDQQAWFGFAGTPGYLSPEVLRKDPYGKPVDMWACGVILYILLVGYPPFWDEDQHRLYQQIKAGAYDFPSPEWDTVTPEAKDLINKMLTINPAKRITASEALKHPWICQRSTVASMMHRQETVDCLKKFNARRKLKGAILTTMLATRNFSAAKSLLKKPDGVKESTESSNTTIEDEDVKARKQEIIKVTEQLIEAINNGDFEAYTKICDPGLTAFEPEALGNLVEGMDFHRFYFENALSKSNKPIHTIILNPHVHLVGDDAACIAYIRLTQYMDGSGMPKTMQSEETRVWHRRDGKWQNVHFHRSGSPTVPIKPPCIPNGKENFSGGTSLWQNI

ABL2 (human) = ABL2 (human) (UniProt P42684); settings: compound 0.1 µM
MAPK12 (human) = MAPK12 (human) (UniProt P53778)
FGFR3 (human) = FGFR3 (human) (UniProt P22607)
MAPKAPK3 (human) = MAPKAPK3 (human) (UniProt Q16644)
Sequence of MAPKAPK3 (human) (Q16644 whole entry, looked up): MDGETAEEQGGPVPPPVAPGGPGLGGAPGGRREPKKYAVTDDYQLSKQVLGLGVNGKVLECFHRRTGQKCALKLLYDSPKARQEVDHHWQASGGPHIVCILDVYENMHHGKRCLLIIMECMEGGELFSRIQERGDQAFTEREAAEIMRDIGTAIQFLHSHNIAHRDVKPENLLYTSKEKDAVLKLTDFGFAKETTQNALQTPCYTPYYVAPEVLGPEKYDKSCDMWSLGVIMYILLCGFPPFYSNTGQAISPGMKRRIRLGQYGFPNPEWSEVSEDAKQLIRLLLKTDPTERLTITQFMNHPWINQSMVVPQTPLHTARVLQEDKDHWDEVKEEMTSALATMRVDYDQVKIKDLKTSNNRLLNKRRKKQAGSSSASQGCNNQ

PRKCD (human) = PRKCD (human) (UniProt Q05655)
Sequence of PRKCD (human) (Q05655 whole entry, looked up): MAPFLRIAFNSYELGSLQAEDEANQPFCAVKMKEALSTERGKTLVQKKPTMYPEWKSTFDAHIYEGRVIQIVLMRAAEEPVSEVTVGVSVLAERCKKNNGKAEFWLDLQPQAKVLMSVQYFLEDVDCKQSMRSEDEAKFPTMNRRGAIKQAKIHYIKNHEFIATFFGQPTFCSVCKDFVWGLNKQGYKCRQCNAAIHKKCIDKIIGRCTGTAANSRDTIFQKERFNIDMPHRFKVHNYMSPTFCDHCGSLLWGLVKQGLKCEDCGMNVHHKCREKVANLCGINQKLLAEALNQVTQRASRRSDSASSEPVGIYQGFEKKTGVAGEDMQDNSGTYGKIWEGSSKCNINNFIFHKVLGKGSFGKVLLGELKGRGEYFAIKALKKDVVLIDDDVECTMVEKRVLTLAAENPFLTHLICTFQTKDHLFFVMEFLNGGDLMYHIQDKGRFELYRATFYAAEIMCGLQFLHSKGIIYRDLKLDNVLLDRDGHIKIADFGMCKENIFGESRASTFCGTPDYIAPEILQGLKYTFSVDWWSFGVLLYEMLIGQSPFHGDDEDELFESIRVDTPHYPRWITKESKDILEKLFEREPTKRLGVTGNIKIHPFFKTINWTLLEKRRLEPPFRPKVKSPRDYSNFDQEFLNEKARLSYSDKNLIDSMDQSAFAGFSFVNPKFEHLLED

PRKD3 (human) = PRKD3 (human) (UniProt O94806)
CDK2 (human) = CDK2 (human) (UniProt P24941)
FLT3 (human) = FLT3 (human) (UniProt P36888)
PIM2 (human) = PIM2 (human) (UniProt Q9P1W9)
MARK2 (human) = MARK2 (human) (UniProt Q7KZI7)
DCLK2 (human) = DCLK2 (human) (UniProt Q8N568)
Sequence of DCLK2 (human) (Q8N568 whole entry, looked up): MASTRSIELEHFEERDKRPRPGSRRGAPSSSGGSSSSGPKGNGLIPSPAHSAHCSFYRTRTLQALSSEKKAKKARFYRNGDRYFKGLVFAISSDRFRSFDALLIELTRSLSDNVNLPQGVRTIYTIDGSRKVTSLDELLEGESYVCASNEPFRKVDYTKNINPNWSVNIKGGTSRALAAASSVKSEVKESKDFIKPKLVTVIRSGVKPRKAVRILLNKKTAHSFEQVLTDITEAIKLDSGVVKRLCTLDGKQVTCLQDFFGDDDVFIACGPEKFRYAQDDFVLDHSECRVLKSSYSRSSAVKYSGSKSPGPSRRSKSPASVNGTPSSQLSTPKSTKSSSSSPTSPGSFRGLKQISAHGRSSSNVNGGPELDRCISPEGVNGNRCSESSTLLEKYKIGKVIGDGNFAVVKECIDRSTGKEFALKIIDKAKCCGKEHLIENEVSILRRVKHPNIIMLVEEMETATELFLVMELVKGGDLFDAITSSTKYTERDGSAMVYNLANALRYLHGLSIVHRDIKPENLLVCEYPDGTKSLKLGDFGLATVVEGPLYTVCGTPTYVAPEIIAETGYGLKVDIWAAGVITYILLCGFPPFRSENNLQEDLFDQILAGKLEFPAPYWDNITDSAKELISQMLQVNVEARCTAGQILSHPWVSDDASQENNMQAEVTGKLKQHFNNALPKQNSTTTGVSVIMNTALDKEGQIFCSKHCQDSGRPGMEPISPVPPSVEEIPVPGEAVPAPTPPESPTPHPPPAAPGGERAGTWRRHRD

[1] = tested on: FLT3 (human), P36888 [D835Y]
AKT1 (human) = AKT1 (human) (UniProt P31749)
MAPK1 (human) = MAPK1 (human) (UniProt P28482)
MAPKAPK5 (human) = MAPKAPK5 (human) (UniProt Q8IW41)

Sequence of CHEK2 (human) (O96017 whole entry, looked up): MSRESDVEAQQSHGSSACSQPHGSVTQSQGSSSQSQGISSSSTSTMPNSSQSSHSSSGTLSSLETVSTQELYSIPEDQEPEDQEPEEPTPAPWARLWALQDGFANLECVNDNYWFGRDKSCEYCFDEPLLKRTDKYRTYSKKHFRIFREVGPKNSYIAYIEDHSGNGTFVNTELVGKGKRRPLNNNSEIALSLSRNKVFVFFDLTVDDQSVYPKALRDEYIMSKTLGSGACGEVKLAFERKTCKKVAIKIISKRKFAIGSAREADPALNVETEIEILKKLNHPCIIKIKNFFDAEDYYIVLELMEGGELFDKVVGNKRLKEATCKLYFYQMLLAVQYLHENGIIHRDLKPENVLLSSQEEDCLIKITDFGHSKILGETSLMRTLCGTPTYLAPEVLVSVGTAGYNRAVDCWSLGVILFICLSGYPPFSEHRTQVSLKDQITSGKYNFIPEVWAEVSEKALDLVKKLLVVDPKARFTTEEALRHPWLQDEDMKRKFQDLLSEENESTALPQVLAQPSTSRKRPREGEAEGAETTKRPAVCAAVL
Sequence of STK3 (human) (Q13188 whole entry, looked up): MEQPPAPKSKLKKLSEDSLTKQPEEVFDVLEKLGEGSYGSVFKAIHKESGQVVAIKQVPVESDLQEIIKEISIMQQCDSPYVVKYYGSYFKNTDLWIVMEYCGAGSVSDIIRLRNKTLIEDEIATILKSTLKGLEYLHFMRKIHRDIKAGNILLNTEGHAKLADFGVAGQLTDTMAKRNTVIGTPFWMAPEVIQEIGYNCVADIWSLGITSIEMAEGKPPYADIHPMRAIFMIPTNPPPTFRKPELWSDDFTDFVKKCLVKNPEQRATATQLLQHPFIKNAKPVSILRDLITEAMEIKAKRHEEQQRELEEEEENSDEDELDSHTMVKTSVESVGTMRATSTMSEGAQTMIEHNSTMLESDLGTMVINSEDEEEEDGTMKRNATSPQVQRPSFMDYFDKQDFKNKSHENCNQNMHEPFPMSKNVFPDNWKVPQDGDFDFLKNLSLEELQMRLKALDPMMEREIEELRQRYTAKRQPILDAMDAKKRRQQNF
Sequence of MAPK13 (human) (O15264 whole entry, looked up): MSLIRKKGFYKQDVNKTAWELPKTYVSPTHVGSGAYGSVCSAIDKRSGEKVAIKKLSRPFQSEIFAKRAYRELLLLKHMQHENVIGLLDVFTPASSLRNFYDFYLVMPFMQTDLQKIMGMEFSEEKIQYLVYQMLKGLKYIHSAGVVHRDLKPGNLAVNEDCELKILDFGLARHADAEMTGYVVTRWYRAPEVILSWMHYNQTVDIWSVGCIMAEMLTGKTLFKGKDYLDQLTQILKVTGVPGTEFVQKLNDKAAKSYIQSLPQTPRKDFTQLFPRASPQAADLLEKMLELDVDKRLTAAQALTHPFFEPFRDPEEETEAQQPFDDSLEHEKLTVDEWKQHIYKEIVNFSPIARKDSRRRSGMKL
Sequence of AKT2 (human) (P31751 whole entry, looked up): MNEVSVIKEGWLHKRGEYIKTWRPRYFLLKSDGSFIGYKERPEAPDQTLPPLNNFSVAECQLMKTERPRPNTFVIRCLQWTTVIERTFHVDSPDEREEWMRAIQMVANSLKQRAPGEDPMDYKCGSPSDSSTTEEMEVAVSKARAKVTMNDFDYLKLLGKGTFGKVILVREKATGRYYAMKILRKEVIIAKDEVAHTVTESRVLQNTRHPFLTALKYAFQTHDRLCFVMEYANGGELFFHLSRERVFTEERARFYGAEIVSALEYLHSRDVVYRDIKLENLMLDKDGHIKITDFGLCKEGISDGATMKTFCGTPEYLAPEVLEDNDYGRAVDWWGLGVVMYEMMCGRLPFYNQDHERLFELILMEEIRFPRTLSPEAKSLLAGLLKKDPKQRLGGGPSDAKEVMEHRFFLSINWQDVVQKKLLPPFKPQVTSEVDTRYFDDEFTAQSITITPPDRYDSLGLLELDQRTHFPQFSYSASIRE
Sequence of RPS6KA2 KD1 KD2 (human) (Q15349 whole entry, looked up): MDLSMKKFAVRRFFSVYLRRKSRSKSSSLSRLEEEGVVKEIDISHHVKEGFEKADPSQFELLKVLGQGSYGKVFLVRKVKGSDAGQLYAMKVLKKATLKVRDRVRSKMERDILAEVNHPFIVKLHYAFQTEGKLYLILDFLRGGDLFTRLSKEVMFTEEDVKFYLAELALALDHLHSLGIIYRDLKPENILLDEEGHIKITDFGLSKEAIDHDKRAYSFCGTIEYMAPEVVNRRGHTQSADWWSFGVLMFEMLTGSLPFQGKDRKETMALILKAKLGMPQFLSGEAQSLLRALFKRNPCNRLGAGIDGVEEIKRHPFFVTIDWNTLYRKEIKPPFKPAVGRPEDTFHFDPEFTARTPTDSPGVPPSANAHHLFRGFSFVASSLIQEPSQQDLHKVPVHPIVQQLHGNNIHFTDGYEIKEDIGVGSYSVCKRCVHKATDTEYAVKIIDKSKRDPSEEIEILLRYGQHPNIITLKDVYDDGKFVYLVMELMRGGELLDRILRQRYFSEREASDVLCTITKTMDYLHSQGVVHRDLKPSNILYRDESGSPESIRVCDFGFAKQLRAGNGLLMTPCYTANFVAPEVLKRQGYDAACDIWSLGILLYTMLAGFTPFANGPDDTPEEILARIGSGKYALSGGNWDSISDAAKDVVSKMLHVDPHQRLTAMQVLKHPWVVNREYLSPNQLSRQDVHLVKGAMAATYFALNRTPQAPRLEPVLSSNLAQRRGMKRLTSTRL

## Cn1cc(-c2cnc3ccc4ccc(CS(=O)(=O)NCC5CCCCN5)cc4c(=O)c3c2)cn1 (centres undefined)
LYN (human); compound 0.1 µM
  inhibition: 17.3%
LYN (human); compound 1.0 µM
  inhibition: 9.6%
AKT2 (human); compound 0.1 µM
  inhibition: 0.7%
AKT2 (human); compound 1.0 µM
  inhibition: 1.9%
RPS6KA2 KD1 KD2 (human); compound 0.1 µM
  inhibition: -1.6%
RPS6KA2 KD1 KD2 (human); compound 1.0 µM
  inhibition: -5.3%
AURKC (human); compound 0.1 µM
  inhibition: 20.9%
CHEK2 (human); compound 0.1 µM
  inhibition: 4.63%
CHEK2 (human); compound 1.0 µM
  inhibition: -0.5%
MAPK13 (human); compound 0.1 µM
  inhibition: -4.9%
STK3 (human); compound 0.1 µM
  inhibition: -0.1%
STK3 (human); compound 1.0 µM
  inhibition: -2.7%
CAMK2B (human); compound 0.1 µM
  inhibition: 2.1%
CAMK2D (human); compound 0.1 µM
  inhibition: 32%
CAMK2D (human); compound 1.0 µM
  inhibition: 15.1%
ABL2 (human)
  inhibition: 3.3%
MAPK12 (human); compound 0.1 µM
  inhibition: -3.3%
MAPK12 (human); compound 1.0 µM
  inhibition: -11.8%
FGFR3 (human); compound 0.1 µM
  inhibition: -12.6%
MAPKAPK3 (human); compound 0.1 µM
  inhibition: -2.7%
PRKCD (human); compound 0.1 µM
  inhibition: -38.2%
PRKCD (human); compound 1.0 µM
  inhibition: -8.2%
PRKD3 (human); compound 0.1 µM
  inhibition: -11.5%
PRKD3 (human); compound 1.0 µM
  inhibition: -4.4%
CDK2 (human); compound 0.1 µM
  inhibition: 1.9%
CDK2 (human); compound 1.0 µM
  inhibition: 1.4%
FLT3 (human); compound 0.1 µM
  inhibition: 11%
FLT3 (human); compound 1.0 µM
  inhibition: 36.8%
PIM2 (human); compound 0.1 µM
  inhibition: 25.2%
PIM2 (human); compound 1.0 µM
  inhibition: 16.7%
MARK2 (human); compound 0.1 µM
  inhibition: -12.6%
MARK2 (human); compound 1.0 µM
  inhibition: 2.4%
DCLK2 (human); compound 0.1 µM
  inhibition: -6%
DCLK2 (human); compound 1.0 µM
  inhibition: -0.3%
[1]; compound 0.1 µM
  inhibition: -0.3%
AKT1 (human); compound 0.1 µM
  inhibition: 12.6%
AKT1 (human); compound 1.0 µM
  inhibition: 5.2%
MAPK1 (human); compound 0.1 µM
  inhibition: 1.1%
MAPK1 (human); compound 1.0 µM
  inhibition: -4.4%
MAPKAPK5 (human); compound 0.1 µM
  inhibition: -4.3%
MAPKAPK5 (human); compound 1.0 µM
  inhibition: -1.1%

## Cn1cc(-c2cnc3ccc4ccc(CS(N)(=O)=O)cc4c(=O)c3c2)cn1
LYN (human); compound 0.1 µM
  inhibition: -8.7%
LYN (human); compound 1.0 µM
  inhibition: -2.3%
AKT2 (human); compound 0.1 µM
  inhibition: 1.7%
AKT2 (human); compound 1.0 µM
  inhibition: 7.1%
RPS6KA2 KD1 KD2 (human); compound 0.1 µM
  inhibition: -0.2%
RPS6KA2 KD1 KD2 (human); compound 1.0 µM
  inhibition: 9%
AURKC (human); compound 0.1 µM
  inhibition: 27.7%
AURKC (human); compound 1.0 µM
  inhibition: 76.2%
CHEK2 (human); compound 0.1 µM
  inhibition: -3.5%
CHEK2 (human); compound 1.0 µM
  inhibition: 0.7%
MAPK13 (human); compound 0.1 µM
  inhibition: -3.2%
MAPK13 (human); compound 1.0 µM
  inhibition: -9.3%
STK3 (human); compound 0.1 µM
  inhibition: 4.4%
STK3 (human); compound 1.0 µM
  inhibition: 7.9%
CAMK2B (human); compound 0.1 µM
  inhibition: -21.3%
CAMK2B (human); compound 1.0 µM
  inhibition: -19.3%
CAMK2D (human); compound 0.1 µM
  inhibition: 4.9%
CAMK2D (human); compound 1.0 µM
  inhibition: 25.1%
MAPK12 (human); compound 0.1 µM
  inhibition: -5.4%
MAPK12 (human); compound 1.0 µM
  inhibition: 2.9%
FGFR3 (human); compound 0.1 µM
  inhibition: 41.1%
FGFR3 (human); compound 1.0 µM
  inhibition: 57.9%
MAPKAPK3 (human); compound 0.1 µM
  inhibition: 5.4%
MAPKAPK3 (human); compound 1.0 µM
  inhibition: 5.7%
PRKCD (human); compound 0.1 µM
  inhibition: 5.1%
PRKD3 (human); compound 0.1 µM
  inhibition: -8.8%
PRKD3 (human); compound 1.0 µM
  inhibition: -1.8%
CDK2 (human); compound 0.1 µM
  inhibition: 1.2%
CDK2 (human); compound 1.0 µM
  inhibition: -3.9%
FLT3 (human); compound 0.1 µM
  inhibition: 4.2%
FLT3 (human); compound 1.0 µM
  inhibition: 48.8%
PIM2 (human); compound 0.1 µM
  inhibition: 15.4%
PIM2 (human); compound 1.0 µM
  inhibition: 16.5%
DCLK2 (human); compound 0.1 µM
  inhibition: 1.7%
DCLK2 (human); compound 1.0 µM
  inhibition: 8.4%
[1]; compound 0.1 µM
  inhibition: 19.1%
[1]; compound 1.0 µM
  inhibition: 73.7%
AKT1 (human); compound 0.1 µM
  inhibition: -2.2%
AKT1 (human); compound 1.0 µM
  inhibition: 1.3%
MAPK1 (human); compound 0.1 µM
  inhibition: -5.5%
MAPK1 (human); compound 1.0 µM
  inhibition: 0.8%
MAPKAPK5 (human); compound 0.1 µM
  inhibition: 1.3%
MAPKAPK5 (human); compound 1.0 µM
  inhibition: -7.9%
